Calls of active or inactive are those of the source. The calls are words filed in the database; no cut-off is given here.
How the values were obtained:
MDA-MB-231 [1] = assay: Cytotoxicity against human MDA-MB-231 cells assessed as cell survival at 50 uM after 48 hrs by Hoechst 33342 staining based assay relative to control; assay type: functional; details: MDA-MB-231, 48 h, read-out: Survival
HCT-116 [2] = assay: Cytotoxicity against human HCT116 cells assessed as cell survival at 50 uM after 48 hrs by Hoechst 33342 staining based assay relative to control; assay type: functional; details: HCT-116, 48 h, read-out: Survival
PC-3 [3] = assay: Cytotoxicity against human PC3 cells assessed as cell survival at 50 uM after 48 hrs by Hoechst 33342 staining based assay relative to control; assay type: functional; details: PC-3, 48 h, read-out: Survival
NCI-H727 [4] = assay: Cytotoxicity against human NCI-H727 cells assessed as cell survival at 50 uM after 48 hrs by Hoechst 33342 staining based assay relative to control; assay type: functional; details: NCI-H727, 48 h, read-out: Survival
HaCaT [5] = assay: Cytotoxicity against human HaCaT cells assessed as cell survival at 50 uM after 48 hrs by Hoechst 33342 staining based assay relative to control; assay type: functional; details: read-out: Survival
Huh-7 [6] = assay: Cytotoxicity against human HuH7 cells assessed as cell viability after 48 hrs by Hoechst 33342 staining based assay; assay type: functional; details: Huh-7, 48 h
MDA-MB-231 [7] = assay: Cytotoxicity against human MDA-MB-231 cells assessed as cell viability after 48 hrs by Hoechst 33342 staining based assay; assay type: functional; details: MDA-MB-231, 48 h
HCT-116 [8] = assay: Cytotoxicity against human HCT116 cells assessed as cell viability after 48 hrs by Hoechst 33342 staining based assay; assay type: functional; details: HCT-116, 48 h
HaCaT [9] = assay: Cytotoxicity against human HaCaT cells assessed as cell viability after 48 hrs by Hoechst 33342 staining based assay; assay type: functional
Fibroblast = assay: Cytotoxicity against human fibroblasts assessed as cell viability after 48 hrs by Hoechst 33342 staining based assay
RL = assay: Cytotoxicity against human RL assessed as cell viability after 48 hrs by Hoechst 33342 staining based assay; assay type: functional
MCF7 [10] = assay: Cytotoxicity against human MCF7 assessed as cell viability after 48 hrs by Hoechst 33342 staining based assay; assay type: functional; details: MCF7, 48 h
[11] = Selectivity index, ratio of IC50 for human fibroblasts to IC50 for human HuH7 cells
[12] = Selectivity index, ratio of IC50 for human fibroblasts to IC50 for human Caco2 cells
[13] = Selectivity index, ratio of IC50 for human fibroblasts to IC50 for human PC3 cells
[14] = Selectivity index, ratio of IC50 for human fibroblasts to IC50 for human RL cells
MDA-MB-231 [15] = assay: Induction of apoptosis in human MDA-MB-231 cells harboring p53 mutant assessed as increase in late apoptosis at 2 times IC50 after 24 hrs by YoPro/propidium iodide/Hoechst staining based assay; assay type: functional, cell-based
PC-3 [16] = assay: Induction of apoptosis in human PC3 cells harboring p53 mutant assessed as increase in cleaved caspase3 at 2 times IC50 after 48 hrs by Hoechst staining based assay; assay type: functional, cell-based
Huh-7 [17] = assay: Cell cycle arrest in human HuH7 cells assessed as mitotic index at 10 uM measured after 48 hrs by Hoechst staining based fluorescence assay (reference value: 2.2); assay type: functional
Caco-2 [18] = assay: Cell cycle arrest in human Caco2 cells assessed as accumulation at S phase at 10 uM measured after 48 hrs by Hoechst/BrdU staining based fluorescence assay (reference value: […]); assay type: functional
MDA-MB-231 [19] = assay: Cell cycle arrest in human MDA-MB-231 cells harboring p53 mutant assessed as mitotic index at 10 uM measured after 48 hrs by Hoechst staining based fluorescence assay (reference value: 2.1); assay type: functional
MDA-MB-231 [20] = assay: Cell cycle arrest in human MDA-MB-231 cells harboring p53 mutant assessed as accumulation at S phase at 10 uM measured after 48 hrs by Hoechst/BrdU staining based fluorescence assay (reference value: 42.2%); assay type: functional
HCT-116 [21] = assay: Cell cycle arrest in human HCT116 cells harboring wild-type p53 assessed as accumulation at S phase at 10 uM measured after 48 hrs by Hoechst/BrdU staining based fluorescence assay (reference value: 68.4%); assay type: functional
NCI-H727 [22] = assay: Cell cycle arrest in human NCI-H727 cells harboring p53 mutant assessed as accumulation at S phase at 10 uM measured after 48 hrs by Hoechst/BrdU staining based fluorescence assay (reference value: 40.3%); assay type: functional
HaCaT [23] = assay: Cell cycle arrest in human HaCaT cells harboring […] p53 assessed as mitotic index at 10 uM measured after 48 hrs by Hoechst staining based fluorescence assay (reference value: 2.6); assay type: functional
HaCaT [24] = assay: Cell cycle arrest in human HaCaT cells harboring […] p53 assessed as accumulation at S phase at 10 uM measured after 48 hrs by Hoechst/BrdU staining based fluorescence assay (reference value: 52.3%); assay type: functional
Caco-2 [25] = assay: Cell cycle arrest in human Caco2 cells assessed as accumulation at S phase at 25 uM measured after 48 hrs by Hoechst/BrdU staining based fluorescence assay (reference value: […]); assay type: functional
HCT-116 [26] = assay: Cell cycle arrest in human HCT116 cells harboring wild-type p53 assessed as mitotic index at 25 uM measured after 48 hrs by Hoechst staining based fluorescence assay (reference value: 2.3); assay type: functional
HCT-116 [27] = assay: Cell cycle arrest in human HCT116 cells harboring wild-type p53 assessed as accumulation at S phase at 25 uM measured after 48 hrs by Hoechst/BrdU staining based fluorescence assay (reference value: 68.4%); assay type: functional
PC-3 [28] = assay: Cell cycle arrest in human PC3 cells harboring p53 mutant assessed as mitotic index at 25 uM measured after 48 hrs by Hoechst staining based fluorescence assay (reference value: 2.5); assay type: functional
PC-3 [29] = assay: Cell cycle arrest in human PC3 cells harboring p53 mutant assessed as accumulation at S phase at 25 uM measured after 48 hrs by Hoechst/BrdU staining based fluorescence assay (reference value: 40.8%); assay type: functional
NCI-H727 [30] = assay: Cell cycle arrest in human NCI-H727 cells harboring p53 mutant assessed as mitotic index at 25 uM measured after 48 hrs by Hoechst staining based fluorescence assay (reference value: 1.1); assay type: functional
NCI-H727 [31] = assay: Cell cycle arrest in human NCI-H727 cells harboring p53 mutant assessed as accumulation at S phase at 25 uM measured after 48 hrs by Hoechst/BrdU staining based fluorescence assay (reference value: 40.3%); assay type: functional
Caco-2 [32] = assay: Cell cycle arrest in human Caco2 cells assessed as accumulation at M phase by Hoechst staining based fluorescence assay; assay type: functional
NCI-H727 [33] = assay: Cell cycle arrest in human NCI-H727 cells assessed as accumulation at G1/S phase by Hoechst staining based fluorescence assay; assay type: functional
HaCaT [34] = assay: Cell cycle arrest in human HaCaT cells assessed as accumulation at M phase by Hoechst staining based fluorescence assay; assay type: functional
HCT-116 [35] = assay: Induction of apoptosis in human HCT116 cells harboring wild-type p53 assessed as upregulation of p21 measured after 48 hrs by Hoechst staining based fluorescence assay; assay type: functional, cell-based
MCF7 [36] = assay: Induction of apoptosis in human MCF7 cells harboring wild-type p53 assessed as upregulation of p21 measured after 48 hrs by Hoechst staining based fluorescence assay; assay type: functional, cell-based
HCT-116 [37] = assay: Induction of apoptosis in human HCT116 cells harboring wild-type p53 assessed as upregulation of cyclinB1 measured after 48 hrs by Hoechst staining based assay; assay type: functional, cell-based

Question: Which viability at 50 µM (MDA-MB-231 [1]) does the source give for `COc1cc(OC)c(C(=O)/C=C/c2ccccc2SC)c(OC)c1` here?
Answer: 36%

Question: And the viability at 50 µM (HCT-116 [2])?
Answer: 0%

Question: And the viability at 50 µM (PC-3 [3])?
Answer: 30%

Question: And the viability at 50 µM (NCI-H727 [4])?
Answer: 1%

Question: What about the viability at 50 µM (HaCaT [5]) of the same molecule?
Answer: 6%

Question: What about the IC50 (Huh-7 [6]) of the same molecule?
Answer: 14.1 µM

Question: What about the IC50 (MDA-MB-231 [7]) of the same molecule?
Answer: 9.9 µM

Question: What about the IC50 (HCT-116 [8]) of the same molecule?
Answer: 6.8 µM

Question: And the IC50 (HaCaT [9])?
Answer: 7.7 µM

Question: And the IC50 (Fibroblast)?
Answer: > 20 µM

Question: And the IC50 (RL)?
Answer: 8.3 µM

Question: And the IC50 (MCF7 [10])?
Answer: 9.3 µM

Question: And the “Ratio IC50” value [11]?
Answer: 2.3

Question: And the “Ratio IC50” value [12]?
Answer: 3.6

Question: What about the “Ratio IC50” value [13] of the same molecule?
Answer: 4.2

Question: What about the “Ratio IC50” value [14] of the same molecule?
Answer: 3.8

Question: What about the Activity (MDA-MB-231 [15]) of the same molecule?
Answer: Active

Question: And the Activity (PC-3 [16])?
Answer: Active

Question: And the Activity_index (Huh-7 [17])?
Answer: 6.5

Question: What about the Activity (Caco-2 [18]) of the same molecule?
Answer: 36%

Question: What about the Activity_index (MDA-MB-231 [19]) of the same molecule?
Answer: 18

Question: And the Activity (MDA-MB-231 [20])?
Answer: 48%

Question: What about the Activity (HCT-116 [21]) of the same molecule?
Answer: 25%

Question: What about the Activity (NCI-H727 [22]) of the same molecule?
Answer: 35%

Question: What about the Activity_index (HaCaT [23]) of the same molecule?
Answer: 18.9

Question: And the Activity (HaCaT [24])?
Answer: 24%

Question: And the Activity (Caco-2 [25])?
Answer: 2.2%

Question: And the Activity_index (HCT-116 [26])?
Answer: 0.4

Question: What about the Activity (HCT-116 [27]) of the same molecule?
Answer: 0.5%

Question: And the Activity_index (PC-3 [28])?
Answer: 0.3

Question: What about the Activity (PC-3 [29]) of the same molecule?
Answer: 0%

Question: What about the Activity_index (NCI-H727 [30]) of the same molecule?
Answer: 0

Question: What about the Activity (NCI-H727 [31]) of the same molecule?
Answer: 3%

Question: What about the Activity (Caco-2 [32]) of the same molecule?
Answer: Active

Question: And the Activity (NCI-H727 [33])?
Answer: Active

Question: What about the Activity (HaCaT [34]) of the same molecule?
Answer: Active

Question: What about the Activity (HCT-116 [35]) of the same molecule?
Answer: Active

Question: What about the Activity (MCF7 [36]) of the same molecule?
Answer: Active

Question: And the Activity (HCT-116 [37])?
Answer: Active

Source: ChEMBL document CHEMBL3992552, “Mechanisms of action and structure-activity relationships of cytotoxic flavokawain derivatives” (Bioorg Med Chem, 2017)
